In paper PMC8840560, “Naphthoquine: A Potent Broad-Spectrum Anti-Coronavirus Drug In Vitro” (Molecules, 2022):
Like-named read-outs stand apart in the source and are kept apart here.

How the values were obtained:
HCoV-229E = test: CPE inhibition assay, HCoV-229E-infected Huh7 cells; format: cell-based; conditions: for IC50: Human coronavirus 229E
HCoV-OC43 = test: CPE inhibition assay, HCoV-OC43-infected H460 cells; format: cell-based; conditions: for IC50: Betacoronavirus 1, NCI-H460, HCoV-OC43 (100 TCID50) in H460 cells, CPE, about 72 h, Reed-Muench
SARS-CoV-2 [1] = test: Anti-SARS-CoV-2 activity in Vero cells by qRT-PCR of viral RNA in supernatant; format: cell-based; conditions: Severe acute respiratory syndrome coronavirus 2; SARS-CoV-2 (100 TCID50) in Vero cells, qRT-PCR of supernatant RNA at 48 h, 12 h pretreatment
SARS-CoV-2 [2] = test: Time-of-addition assay against SARS-CoV-2 in Vero cells; format: cell-based; conditions: 10 µM, qRT-PCR at 48 h
SARS-CoV-2 [3] = test system: SARS-CoV-2; parameters: method as in PMID 32194981, PMID 33995308; conditions: in vitro; read-out: IC50 anti-SARS-CoV-2 in vitro; cited from earlier work
in vitro [4] = conditions: human, Huh7 cells
in vitro [5] = conditions: human, H460 cells

Work on `CCN(CC)CCCC(C)Nc1ccnc2cc(Cl)ccc12` (stereo not shown) [CQ, Chloroquine phosphate] yielded an IC50 (HCoV-229E; Huh-7, 48 h) of 8.74 ± 7.27 µM, an IC50 (HCoV-OC43) of 3.16 ± 0.6 µM and an IC50 (SARS-CoV-2 [1]) of 5.85 ± 0.97 µM. The “inhibition of SARS-CoV-2 infection at all time points (full-time, first 3 h, last 46 h)” value (SARS-CoV-2 [2]) was “effectively inhibit SARS-CoV-2 infection at all time points” and the IC50 (SARS-CoV-2 [3]) was < 10 µM.
For `CCN(CCO)CCCC(C)Nc1ccnc2cc(Cl)ccc12` (stereo not shown) [HCQ, hydroxychloroquine], the IC50 (SARS-CoV-2 [3]) is given as < 10 µM.
`NC(=O)c1ncn([C@@H]2O[C@H](CO)[C@@H](O)[C@H]2O)n1` [RBV, Ribavirin] showed an SI (HCoV-229E) of 26.54, an IC50 (HCoV-229E; Huh-7, HCoV-229E (100 TCID50) in Huh7 cells, CPE, about 48 h, Reed-Muench, read-out: IC50) of 15.4 ± 5.57 µM and an SI (HCoV-OC43) of 15.34. It also gave an IC50 (HCoV-OC43) of 20.7 ± 7.86 µM, a CC50 at 2 days (in vitro [4]) of 409 µM and a CC50 at 2 days (in vitro [5]) of 318 µM.
For `OC(c1cc(C(F)(F)F)nc2c(C(F)(F)F)cccc12)C1CCCCN1` (stereo not shown) [mefloquine], the IC50 (SARS-CoV-2 [3]) is given as < 10 µM.
